Assay [1] relates to bovine embryos. The conditions noted are these: mature Nfel1 in combination with about 20 to 50% (v/v) serum; cited from earlier work.
Assay [2] has as its system bovine embryos. Kind of assay: conception test: implantation of high-quality bovine embryos preserved 7 days in the non-frozen state into recipient cattle. The class given is in vivo. The note with it: 25 mM HEPES. The protocol: Embryos collected from donor bovine animals of Japanese Black Cattle and Holstein Cattle after superovulation were evaluated for their qualities according to the regulation by International Embryo Transfer Society (IETS manual. Manual of the international embryo transfer society. In: Stringfellow D A, Seidel S M, editors. Savoy, Ill., USA: IETS 1998). Low-quality embryos were subjected to an in vitro culture test after 7 days of non-freezing preservation, and high-quality embryos were subjected to investigation of the conception rate after implantation to recipient cattle.
Preservation of bovine embryos was carried out as follows (FIG. 1). First, a preservative solution alone was sucked into a straw having a capacity of 0.25 ml, and, after introduction of an air layer, a bovine embryo contained in the preservative solution was sucked. Thereafter, an air layer was introduced, and the preservative solution alone was sucked again. The straw was then sealed. Subsequently, the straw containing the sucked bovine embryo was immersed in water contained in a plastic container (plastic tube) which had been preliminarily cooled to 4 to 5° C. The plastic container was then stored in a refrigerator for 7 days at 4 to 5° C.
After the non-freezing preservation, the bovine embryo was washed 3 times by immersion in PBS(+) containing 5% (v/v) fetal bovine serum (FBS). The washed bovine embryo was cultured under 5% CO2 at 38° C. in CR1aa medium containing 5% (v/v) FBS for 48 hours. Morphological observation was carried out under a stereoscopic microscope, and the embryo was judged to be alive if the progress of cleavage by the culture could be found and the cytoplasmic membrane was not disrupted. Live cells were checked for whether hatching from the zona pellucida could be observed or not. A bovine embryo washed with PBS(+) containing 5% (v/v) FBS was nonsurgically implanted into the deep part of the corpus-luteum-side uterine horn of each recipient cattle on Day 6 to 8 of an estrous cycle (the date of estrus was defined as Day 0). On Days 30 and 60 of the estrous cycle, pregnancy diagnosis was carried out. For a significance test to verify the effect of the embryo preservation solution according to the present invention, a χ^2 test was used.
To medium 199 (Invitrogen) supplemented with antibiotics (penicillin G potassium and streptomycin sulfate), FBS was added to 20 to 50% (v/v), and HEPES was also added to a concentration of 0 to 100 mM. In the conception test, a group in which a special peptide having a protection effect against low temperature (mature Nfel1, SEQ ID NO:2) was added was also provided. In addition, in order to investigate the effects of other Good's buffers other than HEPES, preservation solutions were prepared by adding FBS and a Good's buffer (PIPES or MOPS) to medium 199 such that the concentration of FBS was 50% (v/v) and the concentration of the Good's buffer was 25 mM. These preservation solutions were sterilized by filtration through a filter having a pore size of 0.2 μm, and stored in a refrigerator until use.
Subsequently, the conception ability of high-quality bovine embryos that had been preserved in the non-frozen state for 7 days was investigated. Since the concentration of HEPES generally recommended for use in cell culture is 10 to 25 mM (Luo S et al., Effect of HEPES buffer on the uptake and transport of P-glycoprotein substrates and large neutral amino acids. Mol Pharm 2010; 7:412-420), the concentration of HEPES in the non-freezing preservative solution used in the present test for investigation of the conception ability was set to 25 mM. The special recombinant peptide having a protection effect against low temperature (mature Nfel1 peptide) was added to medium 199 containing 50% (v/v) FBS supplemented with 25 mM HEPES, to see whether the peptide improves the conception ability or not.

[3] abbreviates: medium 199, 50% (v/v) FBS, 7 days non-frozen.
Where [4] appears, read: medium 199, 50% (v/v) FBS, 7 days non-frozen, 16 implanted embryos.

For “Special recombinant peptide: special peptide having a protection effect against low temperature (mature Nfel1, SEQ ID NO:2), 66 residues, expressed in E. coli”, in assay [1], the “period of preservation of bovine embryos at non-freezing low temperature” value was “up to 5 days”. In assay [2] (setting [3]), the “Conceptus number on Day 30 (%)” value is 75.0% and the “Conceptus number on Day 60 (%)” value was found to be 75.0%. Further, in assay [2] (setting [4]), the “Conceptus number on Day 30” value is recorded as 12 and the “Conceptus number on Day 60” value was 12. The conception-promoting effect entry in assay [2] (peptide added to medium 199, 50% (v/v) FBS) is “No conception-promoting effect was found”.

The values above are taken from patent US10392599B2, “Method for non-freeze low-temperature preservation of mammalian embryo or fertilized egg” (NATIONAL FEDERATION OF AGRICULTURAL COOPERATIVE ASSOCIATIONS, priority 2012, dated 2019).
